Reference: patent US20170050966A1, “INHIBITING THE TRANSIENT RECEPTOR POTENTIAL A1 ION CHANNEL” (HYDRA BIOSCIENCES, INC., priority 2014, published 2017)
Converted amounts (≈) assume the structure as drawn. Where two headings read alike, the source gives them in different places.

Assays:
[1] = Kinetic solubility in buffered solutions; format: physicochemical; conditions: aqueous buffer, kinetic from dmso stock, 24 hours ambient
Method: The solubilities of the compounds of Formula (I) were tested using the procedure outlined in Kerns, E. H., J Pharm Sci (2001) 90:1838-1858, incorporated herein by reference and described below. Data for solubility was obtained by this method for compounds of Formula (I) and included in Table 3. The chromatographic data was performed by HPLC using an Xbridge Shield RP18 column with the following column dimensions: 4.6×30 mm, 3.5 μm. The mobile phase consisted of deionized water (MPA) with trifluoroacetic acid added in at 0.1% (v/v) (MPC) and HPLC-grade acetonitrile (MPB). The mobile phase flow rate was 2.5 mL/min with the column and sampling operating at ambient temperature. UV detection was set to 280 nm.
Samples for analysis of the compounds of Formula (I) were prepared at a % v/v=1/19 (i.e., 10 μL of the stock solution into 190 μL of buffer) by spiking stock solutions of the compounds of Formula (I) into buffered solutions. Three buffered solution systems were prepared: pH 4.0 prepared from 50 mM sodium acetate in a 5% dextrose in water solution, pH 7.4 prepared from 75 mM sodium phosphate in a 1:1 ratio of sterilized water for injection to a 5% dextrose in water solution, and pH 9.0 prepared from 50 mM sodium bicarbonate in a 1:2 ratio of sterilized water for injection to a 5% dextrose in water solution. The samples were incubated on a microplate shaker at 300 rpm for 24 hours at ambient temperature. Following incubation, the samples were centrifuged for five minutes at 13 k rpm at ambient temperature. The resulting supernantant was extracted for HPLC analysis.

human TRPA1 (hTRPA1) = biological target: T1, human TRPA1 (hTRPA1) (Homo sapiens, UniProt O75762); experiment: Inhibition of human TRPA1, whole-cell patch clamp; format: cell-based; conditions: antagonist effect, whole cell patch configuration; read-out: hTRPA1
T1 construct: expressed in transfected cells
T1 sequence (O75762 whole entry): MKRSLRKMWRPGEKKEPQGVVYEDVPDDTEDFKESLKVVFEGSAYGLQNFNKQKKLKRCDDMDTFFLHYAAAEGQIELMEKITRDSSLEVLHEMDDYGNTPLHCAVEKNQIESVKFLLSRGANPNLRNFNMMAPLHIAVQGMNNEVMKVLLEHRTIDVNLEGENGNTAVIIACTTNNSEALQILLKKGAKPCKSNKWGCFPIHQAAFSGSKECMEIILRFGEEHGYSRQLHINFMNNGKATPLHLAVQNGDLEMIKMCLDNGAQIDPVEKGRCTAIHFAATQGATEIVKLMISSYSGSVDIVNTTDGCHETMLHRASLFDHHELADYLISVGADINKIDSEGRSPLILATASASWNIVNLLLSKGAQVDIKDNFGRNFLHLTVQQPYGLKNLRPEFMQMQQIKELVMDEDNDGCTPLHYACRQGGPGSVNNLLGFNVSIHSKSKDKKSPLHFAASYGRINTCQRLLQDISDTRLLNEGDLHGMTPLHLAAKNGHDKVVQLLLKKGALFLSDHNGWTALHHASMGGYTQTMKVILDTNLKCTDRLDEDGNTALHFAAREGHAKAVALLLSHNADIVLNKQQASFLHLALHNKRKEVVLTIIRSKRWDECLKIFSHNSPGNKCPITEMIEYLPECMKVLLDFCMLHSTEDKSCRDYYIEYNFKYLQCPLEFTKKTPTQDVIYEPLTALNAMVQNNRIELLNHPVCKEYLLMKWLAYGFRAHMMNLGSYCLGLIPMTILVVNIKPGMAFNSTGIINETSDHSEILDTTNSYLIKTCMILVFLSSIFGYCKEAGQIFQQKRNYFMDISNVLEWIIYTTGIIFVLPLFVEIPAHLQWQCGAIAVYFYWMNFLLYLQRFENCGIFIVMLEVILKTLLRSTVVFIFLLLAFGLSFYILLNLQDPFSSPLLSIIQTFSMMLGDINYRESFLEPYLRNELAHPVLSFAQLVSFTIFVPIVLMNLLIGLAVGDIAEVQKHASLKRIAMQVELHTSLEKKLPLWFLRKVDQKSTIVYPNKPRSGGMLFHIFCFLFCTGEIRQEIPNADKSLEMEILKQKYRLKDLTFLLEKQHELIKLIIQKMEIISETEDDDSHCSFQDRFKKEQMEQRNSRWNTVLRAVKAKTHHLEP
Method: Data for TRPA1 inhibition was obtained by this method for the indicated compounds of Formula (I), with the relevant data included in Table 14 below. All currents were recorded in whole-cell configuration using EPC-9 and EPC-10 amplifiers and Patchmaster software (HEKA). […] The standard pipette solution consisted of 140 mM CsAsp, 10 mM EGTA, 10 mM HEPES, […], 1.91 mM CaCl2, and up to 0.3 mM Na2GTP, with pH adjusted to 7.2 with CsOH. In addition, a solution containing 145 mM CsCl, 10 mM HEPES, 10 mM EGTA, and up to 0.3 mM Na2GTP and 1 mM MgCl2 (pH 7.2 adjusted with CsOH) can be used. The standard bath solution contained 150 mM NaCl, 10 mM HEPES, 10 mM glucose, 4.5 mM KCl, 1 mM EGTA, 3 mM MgCl2, with pH adjusted to 7.4 with NaOH. In some instances, 2 mM CaCl2 was added in place of EGTA and the concentration of MgCl2 was reduced to 1 mM.
Data were collected either by continuous recordings at −60 mV or by applying voltage ramps from a holding potential of 0 mV every 4 s. Continuous recordings were collected at 400 Hz and digitally filtered off-line at 10 Hz for presentation. Voltage ramps were applied from −100 mV to 100 mV over the course of 400 ms, and data were collected at 10 kHz and filtered at […]. Inward and outward currents were analyzed from the ramps at −80 and 80 mV, respectively. Liquid junction potential correction was not used.
Solutions were switched using a gravity-fed continuous focal perfusion system. To achieve rapid temperature changes, two temperature control, and perfusion systems were employed simultaneously. For temperatures greater than or equal to 22° C., a Warner Instruments bipolar temperature controller (TC-344B) and inline heater (SHM-8) were used. […] Temperatures were confirmed using a thermistor (Warner Instruments, TA-29), with temperatures at the recorded cell estimated to be within +/−2° C. of those reported.
The antagonist effects of compounds of Formula (I) against human TRPA1 (“hTRPA1”) in a whole cell patch configuration were evaluated using the in vitro assay protocol described above.

[2] = Metabolic stability in liver microsomes; format: in vitro ADME, human; conditions: 1 μM test compound; for half-life at 1 μM: human, liver microsomes, 37° C.
Method: (§1) Metabolic stability of the compounds of Formula (I) was determined by standard liver microsome assays. Briefly, metabolic stability was tested by adding the compound to be tested dissolved in DMSO to human, dog, or rat liver microsomes. Assays were run with a starting concentration of 1 μM test compound. The reaction was initiated by addition of nicotinamide adenine dinucleotide phosphate[…] (NADPH) regeneration components at 37° C., at which time an aliquot was immediately quenched in an ice-cold acetonitrile/methanol/water solution. Reaction mixture was incubated at 37° C. on a shaker, and additional aliquots were taken at 7, 15, 30 and 60 minutes. Following quench and centrifugation, samples were analyzed on HPLC/MS/MS.

[3] = Metabolic stability in liver microsomes; format: in vitro ADME; conditions: rat liver microsomes; for half-life at 1 μM: both sexes, read-out: Half-Life Both sexes
Method: as §1

[4] = sodium acetate buffer, pH 4.0, 50 mM sodium acetate, read-out: pH 4.0 solubility
[5] = sodium bicarbonate buffer, pH 9.0, 50 mM sodium bicarbonate, read-out: pH 9.0 solubility
[6] = sodium phosphate buffer, pH 7.4, 75 mM sodium phosphate, read-out: pH 7.4 solubility

Row | Structure (SMILES) | solubility kinetic at 24 h [1, 4] | solubility kinetic at 24 h [1, 5] | solubility kinetic at 24 h [1, 6] | IC50 (human TRPA1 (hTRPA1)) | Human Liver Microsomes Hepatic Clearance [2] | half-life at 1 μM [2] | half-life at 1 μM [3] | Hepatic Clearance [3]
1 | C[C@H](C(=O)Nc1ccnc(-c2cnc(N3CCC[C@@H]3C)nc2)n1)n1cnc2c1c(=O)n(C)c(=O)n2C [Compound 22, (R)-2-(1,3-dimethyl-2,6-dioxo-2,3-dihydro-1H-purin-7(6H)-yl)-N-(2′-((S)-2-methylpyrrolidin-1-yl)-[2,5′-bipyrimidin]-4-yl)propanamide] | 50 µg/mL (≈ 102 µM) | 70 µg/mL (≈ 143 µM) | 89 µg/mL (≈ 181 µM) | > 3200 nM | 12 mL/min/kg | 26 min | – | –
2 | Cn1c(=O)c2c(ncn2CC(=O)Nc2ccnc(-c3cnc(N4CCC(F)(F)CC4)nc3)n2)n(C)c1=O [Compound 8, N-(2′-(4,4-difluoropiperidin-1-yl)-[2,5′-bipyrimidin]-4-yl)-2-(1,3-dimethyl-2,6-dioxo-2,3-dihydro-1H-purin-7(6H)-yl)acetamide] | – | – | – | 71.9 nM | – | 38.4 min | 115 min | –
3 | C[C@@H](C(=O)Nc1ccnc(-c2cnc(N3CC(F)(F)C3)nc2)n1)n1cnc2c1c(=O)n(C)c(=O)n2C [Compound 9, (S)—N-(2′-(3,3-difluoroazetidin-1-yl)-2,5′-bipyrimidin-4-yl)-2-(1,3-dimethyl-2,6-dioxo-2,3-dihydro-1H-purin-7(6H)-yl)propanamide] | – | – | – | 462 nM | – | – | – | –
4 | CC(C(=O)Nc1ccnc(-c2cnc(N3CCCC[C@@H]3C)nc2)n1)n1cnc2c1c(=O)n(C)c(=O)n2C (stereo partly drawn) [Compound 23, 2-(1,3-dimethyl-2,6-dioxo-2,3-dihydro-1H-purin-7(6H)-yl)-N-(2′-((S)-2-methylpiperidin-1-yl)-2,5′-bipyrimidin-4-yl)propanamide] | 20 µg/mL (≈ 39.6 µM) | 14 µg/mL (≈ 27.7 µM) | 31 µg/mL (≈ 61.4 µM) | 60.7 nM | 18 mL/min/kg | 4 min | – | –
5 | C[C@H](C(=O)Nc1ccnc(-c2cnc(N3CCC[C@H]3C(F)(F)F)nc2)n1)n1cnc2c1c(=O)n(C)c(=O)n2C [Compound 3, (R)-2-(1,3-dimethyl-2,6-dioxo-2,3-dihydro-1H-purin-7(6H)-yl)-N-(2′-((S)-2-(trifluoromethyl)pyrrolidin-1-yl)-[2,5′-bipyrimidin]-4-yl)propanamide] | – | – | – | 2290 nM | – | – | – | –
6 | C[C@@H](C(=O)Nc1ccnc(-c2cnc(N3CCC(F)(F)CC3)nc2)n1)n1cnc2c1c(=O)n(C)c(=O)n2C [Compound 14, (S)—N-(2′(4,4-difluoropiperidin-1-yl)-2,5′-bipyrimidin-4-yl)-2-(1,3-dimethyl-2,6-dioxo-2,3-dihydro-1H-purin-7(6H)-yl)propanamide] | – | – | – | 94.8 nM | – | – | – | –
7 | Cn1c(=O)c2c(ncn2CC(=O)Nc2ccnc(-c3cnc(N4CCC[C@H]4C(F)(F)F)nc3)n2)n(C)c1=O [Compound 27, (S)-2-(1,3-dimethyl-2,6-dioxo-2,3-dihydro-1H-purin-7(6H)-yl)-N-(2′-(2-(trifluoromethyl)pyrrolidin-1-yl)-[2,5′-bipyrimidin]-4-yl)acetamide] | – | – | – | 255 nM | – | – | – | –
8 | C[C@H](C(=O)Nc1ccnc(-c2cnc(N3CCC[C@@H]3C(F)(F)F)nc2)n1)n1cnc2c1c(=O)n(C)c(=O)n2C [Compound 28] | – | – | – | 65.9 nM | – | – | – | –
9 | Cn1c(=O)c2c(ncn2CC(=O)Nc2ccnc(-c3cnc(N4CC5CC5C4)nc3)n2)n(C)c1=O (stereo not shown) [Compound 10, N-(2′-(3-azabicyclo[3.1.0]hexan-3-yl)-[2,5′-bipyrimidin]-4-yl)-2-(1,3-dimethyl-2,6-dioxo-2,3-dihydro-1H-purin-7(6H)-yl)acetamide] | – | – | – | 93.5 nM | – | – | – | –
10 | Cn1c(=O)c2c(ncn2CC(=O)Nc2ccnc(-c3cnc(N4CCCC4(C)C)nc3)n2)n(C)c1=O [Compound 18, 2-(1,3-dimethyl-2,6-dioxo-2,3-dihydro-1H-purin-7(6H)-yl)-N-(2′-(2,2-dimethylpyrrolidin-1-yl)-2,5′-bipyrimidin-4-yl)acetamide] | 51 µg/mL (≈ 104 µM) | 17 µg/mL (≈ 34.7 µM) | 41 µg/mL (≈ 83.6 µM) | 10.4 nM | 15 mL/min/kg | 12 min | 21.8 min | 24 mL/min/kg
11 | Cn1c(=O)c2c(ncn2CC(=O)Nc2ccnc(-c3cnc(N4CCC(C(F)(F)F)C4)nc3)n2)n(C)c1=O (stereo not shown) [Compound 11, 2-(1,3-dimethyl-2,6-dioxo-2,3-dihydro-1H-purin-7(6H)-yl)-N-(2′-(3-(trifluoromethyl)pyrrolidin-1-yl)-[2,5′ bipyrimidin]-4-yl)acetamide] | – | – | – | 124 nM | – | – | – | –
12 | [2H]C([2H])([2H])n1c(=O)n(C)c(=O)c2c1ncn2CC(=O)Nc1ccnc(-c2cnc(N3CCC[C@@H]3C)nc2)n1 [Compound 25, N-{2-[2-((2S)-2-methylpyrrolidinyl)pyrimidin-5-yl]pyrimidin-4-yl}-2-(1-methyl-3-methyl-d3-2,6-dioxo(1,3,7-trihydropurin-7-yl))acetamide] | 45 µg/mL (≈ 93.8 µM) | 11 µg/mL (≈ 22.9 µM) | 29 µg/mL (≈ 60.5 µM) | 107 nM | 8 mL/min/kg | 43 min | – | –
13 | C[C@H]1CCCCN1c1ncc(-c2nccc(NC(=O)Cn3cnc4c3c(=O)n(C)c(=O)n4C)n2)cn1 [Compound 17, (S)-2-(1,3-dimethyl-2,6-dioxo-2,3-dihydro-1H-purin-7(6H)-yl)-N-(2′-(2-methylpiperidin-1-yl)-2,5′-bipyrimidin-4-yl)acetamide] | 11 µg/mL (≈ 22.4 µM) | 9 µg/mL (≈ 18.3 µM) | 12 µg/mL (≈ 24.5 µM) | 41.2 nM | 16 mL/min/kg | 8 min | – | 22 mL/min/kg
14 | C[C@H]1CCCN1c1ncc(-c2nccc(NC(=O)Cn3cnc4c3c(=O)[nH]c(=O)n4C)n2)cn1 [Compound 24, (S)-2-(3-methyl-2,6-dioxo-2,3-dihydro-1H-purin-7(6H)-yl)-N-(2′-(2-methylpyrrolidin-1-yl)-[2,5′-bipyrimidin]-4-yl)acetamide] | – | – | – | 436 nM | – | – | – | –
15 | Cn1c(=O)c2c(ncn2CC(=O)Nc2ccnc(-c3cnc(N4CC(F)(F)C4)nc3)n2)n(C)c1=O [Compound 7, N-(2′-(3,3-difluoroazetidin-1-yl)-[2,5′-bipyrimidin]-4-yl)-2-(1,3-dimethyl-2,6-dioxo-2,3-dihydro-1H-purin-7(6H)-yl)acetamide] | – | – | – | 922 nM | – | – | – | –
16 | Cn1c(=O)c2c(ncn2CC(=O)Nc2ccnc(-c3cnc(N4CC(C(F)(F)F)C4)nc3)n2)n(C)c1=O [Compound 12, 2-(1,3-dimethyl-2,6-dioxo-1,2,3,6-tetrahydropurin-7-yl)-N-(2-(2-(3-(trifluoromethyl)azetidin-1-yl)pyrimidin-5-yl)pyrimidin-4-yl)acetamide] | – | – | – | 387 nM | – | – | – | –
